# Source: patent US20260209152A1, “Substituted Hydroxystilbene Compounds and Derivatives, Synthesis and Uses Thereof” (Kynan Duke IP, LLC, priority 2019, published 2026)
# pIC50: −log10 of the molar value. Like-named read-outs stand apart in the source and are kept apart here.
# Experiments:
# Type in all cases: cell-based, human
# [1] = tested on: Cancer cells including pancreatic, bladder, kidney, colon, breast, lung, liver and osteosarcomas; experiment: CellTiter Glo cell viability assay, panel of cancer cell lines; conditions: 83 cancer cell lines, Table 3
# Outline: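 Cells (1.7*10^3/well) were seeded in quadruplicate and treated with 2-fold dilutions over 18 concentrations up to 5 μM, or with 1, 2, 5, 10 and 20 μM. Viability was read by CellTiter Glo luminescence on days 1, 3 and 5; half-maximal concentrations came from nonlinear regression of RLU versus log dose.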
# [2] = tested on: Bladder HT-1197; experiment: CellTiter Glo cell viability assay; conditions: for pIC50: Homo sapiens
# Experimental: (§1) 1.7*10^3 cells/well were seeded in quadruplicates in 96-well plate after plating. Drugs were added at 5 μM and 2-fold dilutions over 18 concentrations (0.000038146-5 […] range) to generate a dose-response curve. Cell growth was assessed on day 1, 3 and 5 after drug treatments using the CellTiter Glo Luminescence Cell Viability Assay (Promega) according to manufacturer's protocol. Thermo Scientific Varioskan LUX Multimode Microplate instrument was used for plate reading. Data are expressed as mean luminescence (arbitrary units) ±S.D.
# (§2) Cell Viability Assays were employed to determine the concentration of Compound 1 (KYN-001) and analogues where the response is reduced by half. For each treatment of cancer cells, 1, 2, 5, 10 and 20 μM solutions of compounds were applied. GraphPad Prism 7 software was used to fit dose response curves. Relative Luminescence Units were plotted against the log values of the doses used and the nonlinear regression model was used for data analysis.
# (§3) The protocol for cell proliferation was optimized for Compound 8 (KYN-119) to enable a more accurate assessment of its low IC50 value. In this protocol, 18 dosages (2 fold dilutions ranging from 0.000038146 to 5 μM) were applied to cells seeded in 96-well plates, and Luminescence was measured after 1, 3 and 5 days upon treatments.
# [3] = tested on: Liver SNU-398; experiment: CellTiter Glo cell viability assay; conditions: for pIC50: Homo sapiens
# Experimental: as §1, §2, §3
# [4] = tested on: Liver HepG2; experiment: CellTiter Glo cell viability assay; conditions: for pIC50: Homo sapiens
# Experimental: as §1, §2, §3
# [5] = tested on: Pancreatic HPAFII; experiment: CellTiter Glo cell viability assay; conditions: for pIC50: Homo sapiens
# Experimental: as §1, §2, §3
# [6] = tested on: Pancreatic BxPC3; experiment: CellTiter Glo cell viability assay; conditions: for pIC50: Homo sapiens
# Experimental: as §1, §2, §3
# [7] = tested on: Tongue UPCI: SCC090; experiment: CellTiter Glo cell viability assay; conditions: for pIC50: Homo sapiens
# Experimental: as §1, §2, §3
# [8] = tested on: Bladder T24; experiment: CellTiter Glo cell viability assay; conditions: for pIC50: Homo sapiens
# Experimental: as §1, §2, §3
# [9] = tested on: Bladder UMUC_3; experiment: CellTiter Glo cell viability assay; conditions: for pIC50: Homo sapiens
# Experimental: as §1, §2, §3
# [10] = tested on: Lung NCI-H1437; experiment: CellTiter Glo cell viability assay; conditions: for pIC50: Homo sapiens
# Experimental: as §1, §2, §3
# [11] = tested on: Lung NCI-H2126; experiment: CellTiter Glo cell viability assay; conditions: for pIC50: Homo sapiens
# Experimental: as §1, §2, §3
# [12] = tested on: Pharynx FADU; experiment: CellTiter Glo cell viability assay; conditions: for pIC50: Homo sapiens
# Experimental: as §1, §2, §3
# [13] = tested on: Pharynx DETROIT; experiment: CellTiter Glo cell viability assay; conditions: for pIC50: Homo sapiens
# Experimental: as §1, §2, §3
# [14] = tested on: Tongue SCC-4; experiment: CellTiter Glo cell viability assay; conditions: for pIC50: Homo sapiens
# Experimental: as §1, §2, §3
# [15] = tested on: Bladder SCABER; experiment: CellTiter Glo cell viability assay; conditions: for pIC50: Homo sapiens
# Experimental: as §1, §2, §3
# [16] = tested on: Hypo-pharynx UPCI: SCC152; experiment: CellTiter Glo cell viability assay; conditions: for pIC50: Homo sapiens
# Experimental: as §1, §2, §3
# [17] = tested on: Osteosarcomas SAOS-2; experiment: CellTiter Glo cell viability assay; conditions: for pIC50: Homo sapiens
# Experimental: as §1, §2, §3
# [18] = tested on: Pancreatic PANC-1; experiment: CellTiter Glo cell viability assay; conditions: for pIC50: Homo sapiens
# Experimental: as §1, §2, §3
# [19] = HT1197, HT-1197/CRL-1473, 11 dilutions 3-0.00001 μM, read-out: IC50
# [20] = IC50 of 1 [KYN-001] vs 8 [KYN-119], 3 Days
# [21] = SNU-398/CRL-2233, 11 dilutions 3-0.00001 μM, read-out: IC50
# [22] = HepG2, Hep G2/HB-8065, 11 dilutions 3-0.00001 μM, read-out: IC50
# [23] = HPAF-II/CRL-1997, 11 dilutions 3-0.00001 μM, read-out: IC50
# [24] = BxPC-3/CRL-1687, 11 dilutions 3-0.00001 μM, read-out: IC50
# [25] = 72 h, 3 Days of treatment, 18 2-fold dilutions 5-0.00003 μM, read-out: Average IC50
# [26] = UPCI: SCC090/CRL-3239, 11 dilutions 3-0.00001 μM, read-out: IC50
# [27] = T24/HTB-4, 11 dilutions 3-0.00001 μM, read-out: IC50
# [28] = UMUC3, UM-UC-3/CRL-1749, 11 dilutions 3-0.00001 μM, read-out: IC50
# [29] = NCI-H1437/CRL-5872, 11 dilutions 3-0.00001 μM, read-out: IC50
# [30] = NCI-H2126/CCL-256, 11 dilutions 3-0.00001 μM, read-out: IC50
# [31] = Fadu/HTB-43, 11 dilutions 3-0.00001 μM, read-out: IC50
# [32] = Detroit 562/CCL-138, 11 dilutions 3-0.00001 μM, read-out: IC50
# [33] = SCC-4/CRL-1624, 11 dilutions 3-0.00001 μM, read-out: IC50
# [34] = SCaBER/HTB-3, 11 dilutions 3-0.00001 μM, read-out: IC50
# [35] = UPCI: SCC152/CRL-3240, 11 dilutions 3-0.00001 μM, read-out: IC50
# [36] = Saos-2/HTB-85, 11 dilutions 3-0.00001 μM, read-out: IC50
# [37] = PANC-1/CRL-1469, 11 dilutions 3-0.00001 μM, read-out: IC50
compound,measurement,setting,value
"CCOc1cc(O)cc(/C=C/c2ccc(O)c(OC)c2)c1CC=C(C)C [Compound 8, (E)-3-Ethoxy-5-(4-hydroxy-3-methoxystyryl)-4-(3-methylbut-2-en-1-yl)phenol]",Average fold (8 [KYN-119] more potent than 1 [KYN-001]),[1],10
same,pIC50,"[2]; HT1197, 72 h, 3 Days of treatment, 18 2-fold dilutions 5-0.00003 μM, read-out: Average IC50",7.94
same,pIC50,[2]; [19],7.31
same,Fold IC50,[2]; [20],22
same,pIC50,"[3]; SNU-398, 72 h, 3 Days of treatment, 18 2-fold dilutions 5-0.00003 μM, read-out: Average IC50",8.09
same,pIC50,[3]; [21],7.13
same,Fold IC50,[3]; [20],5.3
same,pIC50,"[4]; HepG2, 72 h, 3 Days of treatment, 18 2-fold dilutions 5-0.00003 μM, read-out: Average IC50",7.69
same,pIC50,[4]; [22],6.53
same,Fold IC50,[4]; [20],11
same,pIC50,"[5]; HPAF-II, 72 h, 3 Days of treatment, 18 2-fold dilutions 5-0.00003 μM, read-out: Average IC50",6.39
same,pIC50,[5]; [23],6.62
same,Fold IC50,[5]; [20],2.7
same,pIC50,"[6]; BXPC-3, 72 h, 3 Days of treatment, 18 2-fold dilutions 5-0.00003 μM, read-out: Average IC50",6.45
same,pIC50,[6]; [24],6.41
same,Fold IC50,[6]; [20],3.0
same,pIC50,[7]; [25],7.59
same,pIC50,[7]; [26],9.30
same,Fold IC50,[7]; [20],3.5
same,pIC50,[8]; [25],7.65
same,pIC50,[8]; [27],7.21
same,Fold IC50,[8]; [20],5.8
same,pIC50,"[9]; UMUC3, 72 h, 3 Days of treatment, 18 2-fold dilutions 5-0.00003 μM, read-out: Average IC50",8.26
same,pIC50,[9]; [28],7.26
same,Fold IC50,[9]; [20],5.7
same,pIC50,"[10]; NCI-H1437, 72 h, 3 Days of treatment, 18 2-fold dilutions 5-0.00003 μM, read-out: Average IC50",7.78
same,pIC50,[10]; [29],7.49
same,Fold IC50,[10]; [20],21
same,pIC50,"[11]; NCI-H2126, 72 h, 3 Days of treatment, 18 2-fold dilutions 5-0.00003 μM, read-out: Average IC50",8.76
same,pIC50,[11]; [30],7.48
same,Fold IC50,[11]; [20],44
same,pIC50,"[12]; FaDu, 72 h, 3 Days of treatment, 18 2-fold dilutions 5-0.00003 μM, read-out: Average IC50",7.43
same,pIC50,[12]; [31],7.27
same,Fold IC50,[12]; [20],2.0
same,pIC50,[13]; [25],6.36
same,pIC50,[13]; [32],7.12
same,Fold IC50,[13]; [20],2.7
same,pIC50,"[14]; SCC-4, 72 h, 3 Days of treatment, 18 2-fold dilutions 5-0.00003 μM, read-out: Average IC50",7.62
same,pIC50,[14]; [33],7.63
same,Fold IC50,[14]; [20],4.2
same,pIC50,"[15]; SCaBER, 72 h, 3 Days of treatment, 18 2-fold dilutions 5-0.00003 μM, read-out: Average IC50",8.00
same,pIC50,[15]; [34],7.56
same,Fold IC50,[15]; [20],3.3
same,pIC50,[16]; [25],7.64
same,pIC50,[16]; [35],7.26
same,Fold IC50,[16]; [20],2.0
same,pIC50,"[17]; SAOS-2, 72 h, 3 Days of treatment, 18 2-fold dilutions 5-0.00003 μM, read-out: Average IC50",7.81
same,pIC50,[17]; [36],7.10
same,Fold IC50,[17]; [20],7.2
same,pIC50,"[18]; PANC-1, 72 h, 3 Days of treatment, 18 2-fold dilutions 5-0.00003 μM, read-out: Average IC50",7.94
same,pIC50,[18]; [37],7.50
same,Fold IC50,[18]; [20],9.3
"CCOc1cc(O)cc(/C=C/c2ccc(O)c(O)c2)c1CC=C(C)C [Compound 20, (E)-4-(3-Ethoxy-5-hydroxy-2-(3-methylbut-2-en-1-yl)styryl)benzene-1,2-diol]",pIC50,[2]; [19],7.21
same,pIC50,[3]; [21],6.96
same,pIC50,[4]; [22],6.63
same,pIC50,[5]; [23],6.20
same,pIC50,[6]; [24],5.85
same,pIC50,[7]; [26],7.32
same,pIC50,[8]; [27],6.95
same,pIC50,[9]; [28],6.90
same,pIC50,[10]; [29],7.14
same,pIC50,[11]; [30],7.01
same,pIC50,[12]; [31],7.10
same,pIC50,[13]; [32],6.91
same,pIC50,[14]; [33],7.50
same,pIC50,[15]; [34],7.27
same,pIC50,[16]; [35],6.83
same,pIC50,[17]; [36],6.89
same,pIC50,[18]; [37],7.38
